Assay results as given in patent US20230303544A1, “LMO2 PROTEIN INHIBITORS” (UNIVERSITY OF OXFORD, priority 2020, published 2023).
Several values for one entry are separate records, joined by “and”; a condition that tells them apart may be missing. Equal entries are not always repeated.

Key:
[1] = target: T1, LMO2-iDAb LMO2dm3 interaction (Homo sapiens, UniProt P25791); test: LMO2-iDAb LMO2dm3 BRET assay; type: cell-based; settings: 22 h; for inhibition of LMO2-iDAb LMO2dm3 interaction (in words): BRET competition, Abd concentration 1 (or 5), 10, 20 μM; for IC50: BRET dose response, HEK293T cells, 0.01-50 μM
T1 construct: LMO2 cDNA was cloned into the pEF-RLuc8-MCS and pEF-MCS-RLuc8 plasmids; expressed in transfected cells; host or cells: HEK293T
T1 sequence (P25791 1-158): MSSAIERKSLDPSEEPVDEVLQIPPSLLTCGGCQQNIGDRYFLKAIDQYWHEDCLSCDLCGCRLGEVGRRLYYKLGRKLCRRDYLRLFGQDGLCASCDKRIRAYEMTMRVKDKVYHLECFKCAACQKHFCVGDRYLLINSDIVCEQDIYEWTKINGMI
Method: For all BRET experiments (titration curves and competition assays) 650,000 HEK293T were seeded in each well of a 6 well plates. After 24 hours at 37° C., cells were transfected with a total of 1.6 μg of DNA mix, containing the donor+acceptor±competitor plasmids, using Lipofectamine 2000 transfection reagent (Thermo-Fisher). In dose response competition experiments, competitors were transfected with the following amount of DNA: 0.1; 0.5 and 1 μg. In single dose competition experiments, competitors were transfected with […] of DNA. Cells were detached 24 hours later, washed with PBS and seeded in a white 96-well plate (clear bottom, PerkinElmer, Cat #6005181) in OptiMEM no phenol red medium complemented with 4% FBS and cells were incubated for an additional 20-24 hours at 37° C. before the BRET assay reading. A detailed BRET protocol is provided by Bery and Rabbitts, (2019).
Compounds were prepared in 100% DMSO at 10 mM. For BRET competition assays, cells were treated with the indicated compounds at concentration of 1 (or 5), 10 and 20 μM for 22 h. For BRET-based dose response experiments, cells were treated with compounds at concentration of 0.01, 0.1, 1, 4, 10, 25 and 50 μM for 22 h. The compounds were diluted in the BRET medium: OptiMEM no phenol red (Life Technologies) supplemented with 4% FBS and with a final concentration of 0.2% DMSO.
BRET2 signal was determined immediately after injection of coelenterazine 400a substrate (10 μM final) to cells (Cayman Chemicals), using a CLARIOstar instrument (BMG Labtech) with a luminescence module. Total GFP^2 fluorescence was detected with excitation and emission peaks set at 405 nm and 515 nm respectively. Total RLuc8 luminescence was measured with the Luminescence 400-700 nm-wavelength filter.
The BRET signal or BRET ratio corresponds to the light emitted by the GFP^2 acceptor constructs (515 nm±30) upon addition of coelenterazine 400a divided by the light emitted by the RLuc8 donor constructs (410 nm±80). The background signal is subtracted from that BRET ratio using the donor-only negative control where only the RLuc8 fusion plasmid is transfected into the cells. The normalized BRET ratio is the BRET ratio normalized to a negative control (iDAb control or DMSO control) during a competition assay. Total GFP^2 and RLuc8 signals were used to control the protein expression from each plasmid.

LMO2-ΔLID = target: T2, LMO2-ΔLID (Homo sapiens, UniProt P25791); test: WaterLOGSY NMR binding to LMO2-ΔLID; settings: RT
T2 construct: UniProt P25791; residues 26-156; hexa-histidine tag (N, cleaved yes); SUMO (N, cleaved yes); made in house; host or cells: E. coli Lemo21(DE3)
T2 sequence (P25791 with tags, fused parts or gaps): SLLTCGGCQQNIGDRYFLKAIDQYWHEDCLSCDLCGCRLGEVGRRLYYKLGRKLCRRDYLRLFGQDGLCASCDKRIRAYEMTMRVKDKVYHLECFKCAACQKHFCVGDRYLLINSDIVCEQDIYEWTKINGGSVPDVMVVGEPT
Method: (§1) WaterLOGSY NMR method was used to measure LMO2 ligand interaction (Bataille et al., 2020). WaterLOGSY experiments were conducted at a ^1H frequency of 600 MHz using a Bruker Avance spectrometer equipped with a BBI probe. All experiments were conducted at RT. 3 mm diameter NMR tubes with a sample volume of 200 μL were used for all experiments. For LMO2-LID, solutions were buffered using a 10 mM NaPO4, 250 mM NaCl solution. For LMO2-ΔLID, solutions were buffered using a 10 mM NaPO4, 50 mM NaCl solution. The sample preparation for measuring ligand binding with LMO2-LID is exemplified as follows; the compound (10 μL of a 10 mM solution in DMSO-d6) was added to an Eppendorf tube before sequential addition of the appropriate buffer (90 μL), D2O (20 μL), and the protein (80 μL, 25 μM). The resulting solution was vortexed to mix and transferred to a 3 mm NMR tube prior to the NMR analysis. The sample preparation for measuring ligand binding with LMO2-ΔLID is exemplified as follows; the compound (10 μL of a 10 mM solution in DMSO-d6) was added to an Eppendorf tube before sequential addition of the appropriate buffer (162 μL), D2O (20 μL), and the protein (8 μL, 250 μM). The resulting solution was vortexed to mix and transferred to a 3 mm NMR tube prior to the NMR analysis. […]

LMO2-LID = target: T3, LMO2-LID (Homo sapiens, UniProt P25791); test: WaterLOGSY NMR binding to LMO2-LID; settings: RT
T3 construct: made in house; host or cells: E. coli BL21(DE3)-Rosetta2 pLysS
T3 sequence (P25791 26-156 limits assumed): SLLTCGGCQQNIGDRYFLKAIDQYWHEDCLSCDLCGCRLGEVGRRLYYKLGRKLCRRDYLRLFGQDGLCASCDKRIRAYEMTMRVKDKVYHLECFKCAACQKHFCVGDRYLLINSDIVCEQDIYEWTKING
T3 sequence (Q86U70 336-375 partner limits assumed): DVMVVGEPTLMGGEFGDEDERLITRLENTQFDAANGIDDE
Method: as §1

[2] = Parallel artificial membrane permeability assay (PAMPA); type: in vitro ADME; settings: 10 μM donor, pH 5, 6.5 and 7.4, 16 hours, 30° C.
Method: The parallel artificial membrane permeability assay (PAMPA) was used to determine compound permeability by passive diffusion. The assay used an artificial membrane consisting of 2% phosphatidyl choline in dodecane (Sigma Aldrich, Dorset, UK). The donor plate was a MultiScreen-IP Plate with 0.45 μm hydrophobe Immobilon-P Membrane (Millipore, UK) and the acceptor plate was a MultiScreen 96-well Transport Receiver Plate (Millipore, UK). The permeability was measured at 3 different pH levels: pH 5, 6.5 and pH 7.4 in buffer containing 1% Bovine Serum Albumin (Sigma Aldrich, Dorset, UK). A 10 mM DMSO stock solution of test compound was used to prepare the 10 μM PAMPA donor solutions and calibration curves in each of the three buffers.
6 μL of the membrane solution was added to each well of the donor plate. Buffer donor solutions (200 μL) were added to the appropriate wells of the PAMPA donor plate. 300 µL per well of blank PBS (pH 7.4) was added to the PAMPA acceptor plate.
The donor and acceptor plates were then sandwiched together, covered with a lid and incubated at 30° C. in a humid environment for 16 hours. After the incubation period the plates were removed from the incubator and the sandwich was dismantled. […] All sample supernatants were diluted and analysed using a Waters (Milford, MA, US) TQ-S LC-MS/MS system.
Permeability values (cm/s) were calculated using the following equation: […]

[3] = system: Caco-2 human colon carcinoma cell line; test: Caco-2 permeability assay; type: in vitro ADME; settings: 10 μM, 2 hours, 37° C.
Method: Caco-2 apparent permeability (Papp) was determined in the Caco-2 human colon carcinoma cell line as described (Bavetsias et al., 2016). Cells were maintained (DMEM with 10% fetal bovine serum, penicillin, and streptomycin) in a humidified atmosphere with 5% CO2/95% air for 10 days. Cells were plated out onto a cell culture assembly plate (Millipore, UK), and monolayer confluency was checked using a TEER electrode prior to the assay. Media was washed off and replaced with HBSS buffer (pH7.4) containing compound (10 μM, 1% DMSO) in the appropriate apical and basal donor wells. HBSS buffer alone was placed in acceptor wells. In particular instances a specific P-gp inhibitor, LY335979 (5 μM), was added to the HBSS. The Caco-2 plate was incubated for 2 hours at 37° C. Samples from the apical and basolateral chambers were analysed using a Waters (Milford, MA, US) TQ-S LC-MS/MS system. The cell permeability properties of Abd-L compounds was compared to low (nadolol) and high (antipyrine) permeability compounds and a compound with high export (indinavir).
Apparent permeability (Papp) was determined as follows: […]

Structure (SMILES)	inhibition of LMO2-iDAb LMO2dm3 interaction (in words) [1]	IC50 [1]	also measured
COc1ccc(CN2CCN(c3nc(C(=O)Nc4ccc(-n5cccc5)cc4)co3)CC2)cc1 [Abd-L19, N-(4-(1H-pyrrol-1-yl)phenyl)-2-(4-(4-methoxybenzyl)piperazin-1-yl)oxazole-4-carboxamide]	–	48.8 µM	–
COc1cccc(CN2CCN(c3nc(C(=O)Nc4ccc(OCc5ccccc5)cc4)cs3)CC2)c1 [Abd-L17, N-(4-(benzyloxy)phenyl)-2-(4-(3-methoxybenzyl)piperazin-1-yl)thiazole-4-carboxamide]	–	13 µM	–
COc1ccc(NC(=O)c2cnc(N3CCN(Cc4ccc(Cl)cc4)C3=O)o2)cc1OC [Abd-L8, 2-(3-(4-chlorobenzyl)-2-oxoimidazolidin-1-yl)-N-(3,4-dimethoxyphenyl)oxazole-5-carboxamide]	unable to inhibit	–	–
COc1cccc(CN2CCN(c3nccc(C(=O)Nc4ccc(-n5cccc5)cc4)n3)CC2)c1 [Abd-L25, N-(4-(1H-pyrrol-1-yl)phenyl)-2-(4-(3-methoxybenzyl)piperazin-1-yl)pyrimidine-4-carboxamide]	do not affect	–	–
O=C(NCc1ccc(Oc2ccccc2)cc1)c1coc(N2CCN(Cc3ccccc3)C2=O)n1 [Abd-L13, 2-(3-benzyl-2-oxoimidazolidin-1-yl)-N-(4-phenoxybenzyl)oxazole-4-carboxamide]	–	–	binding to LMO2-ΔLID by waterLOGSY NMR (LMO2-ΔLID): bind and showed binding and Direct binding; binding to LMO2-LID by waterLOGSY NMR (LMO2-LID): not
COc1cccc(CN2CCN(c3nc(C(=O)Nc4ccc(-n5cccc5)cc4)cs3)CC2)c1 [Abd-L18, N-(4-(1H-pyrrol-1-yl)phenyl)-2-(4-(3-methoxybenzyl)piperazin-1-yl)thiazole-4-carboxamide]	–	15.8 µM	–
O=C(NCCc1ccccc1)c1cnc(N2CCN(Cc3ccc(Cl)cc3)C2=O)o1 [Abd-L11, 2-(3-(4-chlorobenzyl)-2-oxoimidazolidin-1-yl)-N-phenethyloxazole-5-carboxamide]	unable to inhibit	–	–
COc1cccc(CN2CCN(c3nc(C(=O)Nc4ccc(OCc5ccccc5)cc4)co3)CC2)c1 [Abd-L16, N-(4-(benzyloxy)phenyl)-2-(4-(3-methoxybenzyl)piperazin-1-yl)oxazole-4-carboxamide]	–	1.2 µM	–
CS(=O)(=O)Nc1ccccc1NC(=O)c1cnc(N2CCN(Cc3ccccc3)C2=O)s1 [Abd-L5, 2-(3-benzyl-2-oxoimidazolidin-1-yl)-N-(2-(methylsulfonamido)phenyl)thiazole-5-carboxamide]	unable to inhibit	–	–

Further lines, with some results ahead:

inhibition of LMO2-iDAb LMO2dm3 interaction (in words) [1]	IC50 [1]	Structure (SMILES)	also measured
do not affect	–	COc1cccc(CN2CCCN(c3nc(C(=O)Nc4ccc(-n5cccc5)cc4)co3)C2=O)c1 [Abd-L24, N-(4-(1H-pyrrol-1-yl)phenyl)-2-(3-(3-methoxybenzyl)-2-oxotetrahydropyrimidin-1(2H)-yl)oxazole-4-carboxamide]	–
–	~1 µM and 1 µM	N#Cc1cccc(CN2CCN(c3nc(C(=O)Nc4ccc(-n5cccc5)cc4)co3)C2=O)c1 [Abd-L10, N-(4-(1H-pyrrol-1-yl)phenyl)-2-(3-(3-cyanobenzyl)-2-oxoimidazolidin-1-yl)oxazole-4-carboxamide]	–
–	16.6 µM	COc1cccc(CN2CCN(c3nc(C(=O)Nc4ccc(-n5cccc5)cc4)co3)CC2)c1 [Abd-L15, N-(4-(1H-pyrrol-1-yl)phenyl)-2-(4-(3-methoxybenzyl)piperazin-1-yl)oxazole-4-carboxamide]	–
most potent inhibitor	1.5 µM	COc1cccc(CN2CCN(c3nc(C(=O)Nc4ccc(OCc5ccccc5)cc4)co3)C2=O)c1 [Abd-L9, N-(4-(benzyloxy)phenyl)-2-(3-(3-methoxybenzyl)-2-oxoimidazolidin-1-yl)oxazole-4-carboxamide]	binding to LMO2-ΔLID by waterLOGSY NMR (LMO2-ΔLID): bind and showed binding and Direct binding; PAMPA permeability (in words) [2]: best properties; binding to LMO2-LID by waterLOGSY NMR (LMO2-LID): not; Caco-2 cell permeability (in words) [3]: low transport; Caco-2 efflux (in words) [3]: low efflux ratio
